Results reported in ChEMBL document CHEMBL5260834, “Benzomorphan skeleton, a versatile scaffold for different targets: A comprehensive review” (Eur J Med Chem, 2018).

Columns and labels:
[1] = target: T1, Sigma non-opioid intracellular receptor 1 (Cavia porcellus, UniProt Q60492); test: Displacement of [3H]-(+)-pentazocine from sigma1 receptor in guinea pig brain membrane assessed as inhibition constant; assay type: cell membranes
[2] = target: T2, Sigma intracellular receptor 2 (Rattus norvegicus, UniProt Q5U3Y7); test: Displacement of [3H]DTG from sigma 2 receptor in rat liver membranes assessed as inhibition constant presence of dextrallorphan; assay type: cell membranes, Membrane
T2 sequence (Q5U3Y7 whole entry): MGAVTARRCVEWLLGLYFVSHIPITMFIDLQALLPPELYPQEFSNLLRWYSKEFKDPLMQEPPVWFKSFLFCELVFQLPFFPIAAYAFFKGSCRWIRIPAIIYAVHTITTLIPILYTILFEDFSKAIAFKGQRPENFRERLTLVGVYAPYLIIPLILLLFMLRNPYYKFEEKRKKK

[3] = target: T3, Sigma non-opioid intracellular receptor 1 (Homo sapiens, UniProt Q99720); test: Inhibition of sigma 1 receptor (unknown origin)
[4] = target: T1, Sigma non-opioid intracellular receptor 1; test: Displacement of [3H]-(+)-pentazocine from sigma1 receptor in guinea pig brain membrane assessed as inhibition constant measured for 150 mins in presence of haloperidol; assay type: cell membranes
[5] = target: T3, Sigma non-opioid intracellular receptor 1; test: Agonist activity at sigma1 receptor (unknown origin); details: filed as agonist
[6] = target: T4, Sigma intracellular receptor 2 (Homo sapiens, UniProt Q5BJF2); test: Displacement of [3H]DTG from sigma 2 receptor (unknown origin) assessed as inhibition constant incubated for 120 mins in presence of (+)-SKF10047 by radioligand binding assay
Mu-type opioid receptor [7] = target: Mu-type opioid receptor (Rattus norvegicus, UniProt P33535); test: Displacement of [ 3H]-naloxone from rat brain membrane mu opioid receptor assessed as inhibition constant by radioligand binding assay; assay type: cell membranes
[8] = target: T3, Sigma non-opioid intracellular receptor 1; test: Displacement of [3H]-(+)-pentazocine from sigma1 receptor (unknown origin) assessed as inhibition constant
[9] = target: T5, Kappa-type opioid receptor (Homo sapiens, UniProt P41145); test: Displacement of [3H]-U69593 from KOR receptor (unknown origin) assessed as inhibition constant
[10] = target: Delta-type opioid receptor (Homo sapiens, UniProt P41143); test: Displacement of [3H]-Diprenorphine from DOR receptor (unknown origin) assessed as inhibition constant
Mu-type opioid receptor [11] = target: T6, Mu-type opioid receptor (Homo sapiens, UniProt P35372); test: Displacement of [3H]-Diprenorphine from MOR receptor (unknown origin) assessed as inhibition constant
[12] = Ratio of Ki for displacement of [3H]-(+)-pentazocine from sigma1 receptor in guinea pig brain membrane assessed as inhibition constant to Ki for displacement of [3H]-(+)-pentazocine from sigma1 receptor in guinea pig brain membrane assessed as inhibition constant; assay type: cell membranes; set-up: reference not given here
[13] = target: T4, Sigma intracellular receptor 2; test: Displacement of [3H]DTG from sigma 2 receptor (unknown origin) assessed as inhibition constant in presence of (+)-SKF10047 by radioligand binding assay
[14] = target: T5, Kappa-type opioid receptor; test: Displacement of [3H]-diprenorphine from KOR receptor (unknown origin) assessed as inhibition constant in presence of D-Ala-N-MePhe-Gly-ol-enkephalin and D-Ala-DLeu-enkephalin
[15] = target: T4, Sigma intracellular receptor 2
Description: Inhibition of sigma 2 receptor (unknown origin)

[16] = Displacement of 3[H]BTX from rat cerebral cortex sodium channel assessed as inhibition constant; assay type: tissue-based
[17] = target: Glutathione hydrolase 1 proenzyme (Homo sapiens, UniProt P19440); test: Inhibition of human GGT1
Mus musculus [18] = test: Anticonvulsant activity in mouse assessed as protection against maximal electroshock seizures at 5 mg/kg, sc by maximum electroshock seizure test; assay type: functional; details: read-out: ID50 (the source's name)
[19] = target: T1, Sigma non-opioid intracellular receptor 1; test: Displacement of [3H]-(+)-pentazocine from sigma1 receptor in guinea pig brain membrane assessed as inhibition constant measured after 120 mins by scintillation counting method; assay type: cell membranes
[20] = Ratio of Ki for displacement of [3H]DTG from sigma 2 receptor (unknown origin) to Ki for displacement of [3H]-(+)-pentazocine from sigma1 receptor in guinea pig brain membrane; assay type: cell membranes
Mu-type opioid receptor [21] = target: T6, Mu-type opioid receptor; test: Displacement of [3H]-DAMGO from human MOR receptor assessed as inhibition constant by cheng-prusoff equation assay
[22] = Ratio of Ki for displacement of[3H]-DAMGO from human MOR receptor to Ki for displacement of [3H]-(+)-pentazocine from sigma1 receptor in guinea pig brain membrane; assay type: cell membranes
[23] = target: T4, Sigma intracellular receptor 2; test: Displacement of [3H]DTG from sigma 2 receptor (unknown origin) assessed as inhibition constant
[24] = target: Glutamate [NMDA] receptor; test: Antagonist activity at NMDA receptor (unknown origin) assessed as inhibition constant; assay type: protein-complex assay, Homo sapiens
[25] = Half life in mouse; assay type: ADME, organism-based; details: in vivo
[26] = Toxicity in mouse assessed as induction of lethality; details: in vivo
[27] = target: T4, Sigma intracellular receptor 2; test: Displacement of [3H]DTG from sigma 2 receptor (unknown origin) assessed as inhibition constant in presence of haloperidol measured for 120 mins by scintillation counting analysis
[28] = Ratio of Ki for displacement of [3H]DTG from sigma 2 receptor (unknown origin) assessed as inhibition constant in presence of haloperidol to Ki for displacement of [3H]-(+)-pentazocine from sigma1 receptor in guinea pig brain membrane assessed as inhibition constant; assay type: cell membranes
[29] = target: T1, Sigma non-opioid intracellular receptor 1; test: Displacement of [3H]-(+)-pentazocine from sigma1 receptor in guinea pig brain membrane assessed as inhibition constant measured for 150 mins; assay type: cell membranes
[30] = Ratio of Ki for displacement of [3H]DTG from sigma 2 receptor in rat liver membranes assessed as inhibition constant presence of haloperidol by scintillation counting analysis to Ki for displacement of [3H]-(+)-pentazocine from sigma 1 receptor in guinea pig brain membrane assessed as inhibition constant in presence of haloperidol; assay type: cell membranes
[31] = target: T2, Sigma intracellular receptor 2; test: Displacement of [3H]DTG from sigma 2 receptor in rat liver membranes assessed as inhibition constant presence of haloperidol by scintillation counting analysis; assay type: cell membranes, Membrane
Mus musculus [32] = test: Anticonvulsant activity in mouse assessed as protection against maximal electroshock seizures […] by maximum electroshock seizure test; assay type: functional

T6 sequence (P35372 whole entry): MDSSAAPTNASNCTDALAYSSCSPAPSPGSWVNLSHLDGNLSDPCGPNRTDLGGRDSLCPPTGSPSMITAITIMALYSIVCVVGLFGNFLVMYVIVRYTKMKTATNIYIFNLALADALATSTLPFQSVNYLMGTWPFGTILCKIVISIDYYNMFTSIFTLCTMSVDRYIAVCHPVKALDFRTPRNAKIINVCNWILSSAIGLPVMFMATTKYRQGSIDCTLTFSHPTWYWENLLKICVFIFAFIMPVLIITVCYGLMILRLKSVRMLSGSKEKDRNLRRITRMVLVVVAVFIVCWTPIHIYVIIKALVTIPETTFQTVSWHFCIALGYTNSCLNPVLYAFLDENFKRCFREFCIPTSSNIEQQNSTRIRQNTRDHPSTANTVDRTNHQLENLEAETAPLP
T3 sequence (Q99720 whole entry): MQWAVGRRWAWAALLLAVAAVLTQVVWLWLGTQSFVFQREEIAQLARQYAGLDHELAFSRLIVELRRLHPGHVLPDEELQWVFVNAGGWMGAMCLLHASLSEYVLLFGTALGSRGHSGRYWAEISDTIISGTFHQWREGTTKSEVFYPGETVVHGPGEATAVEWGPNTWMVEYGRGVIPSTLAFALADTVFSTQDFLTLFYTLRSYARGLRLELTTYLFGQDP
Mu-type opioid receptor (Rattus norvegicus, UniProt P33535), sequence (P33535 whole entry): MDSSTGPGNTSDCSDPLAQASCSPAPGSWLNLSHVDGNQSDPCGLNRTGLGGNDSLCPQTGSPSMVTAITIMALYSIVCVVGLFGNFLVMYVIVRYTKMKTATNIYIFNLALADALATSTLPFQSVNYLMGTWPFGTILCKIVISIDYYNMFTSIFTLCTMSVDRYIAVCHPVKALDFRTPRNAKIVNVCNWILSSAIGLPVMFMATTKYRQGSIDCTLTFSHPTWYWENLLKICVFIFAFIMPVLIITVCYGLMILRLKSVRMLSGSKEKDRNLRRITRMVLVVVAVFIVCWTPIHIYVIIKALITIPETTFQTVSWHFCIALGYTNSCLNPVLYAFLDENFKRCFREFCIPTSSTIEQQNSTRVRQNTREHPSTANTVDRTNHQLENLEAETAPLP
T4 sequence (Q5BJF2 whole entry): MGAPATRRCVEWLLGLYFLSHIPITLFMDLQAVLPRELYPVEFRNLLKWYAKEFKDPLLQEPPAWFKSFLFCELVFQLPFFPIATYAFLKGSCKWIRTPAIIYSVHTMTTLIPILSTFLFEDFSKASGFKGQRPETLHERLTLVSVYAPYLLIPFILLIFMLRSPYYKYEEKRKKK
Delta-type opioid receptor, sequence (P41143 whole entry): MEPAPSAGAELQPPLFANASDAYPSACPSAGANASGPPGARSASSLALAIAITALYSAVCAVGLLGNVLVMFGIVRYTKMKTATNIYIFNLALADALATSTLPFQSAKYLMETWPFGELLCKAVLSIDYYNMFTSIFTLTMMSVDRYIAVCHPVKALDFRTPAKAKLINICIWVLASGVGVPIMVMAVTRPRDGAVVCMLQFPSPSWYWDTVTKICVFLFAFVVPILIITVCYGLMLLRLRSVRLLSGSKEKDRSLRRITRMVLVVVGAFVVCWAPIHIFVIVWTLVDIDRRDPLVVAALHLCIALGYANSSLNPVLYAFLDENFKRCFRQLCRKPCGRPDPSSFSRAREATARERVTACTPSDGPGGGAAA
T1 sequence (Q60492 whole entry): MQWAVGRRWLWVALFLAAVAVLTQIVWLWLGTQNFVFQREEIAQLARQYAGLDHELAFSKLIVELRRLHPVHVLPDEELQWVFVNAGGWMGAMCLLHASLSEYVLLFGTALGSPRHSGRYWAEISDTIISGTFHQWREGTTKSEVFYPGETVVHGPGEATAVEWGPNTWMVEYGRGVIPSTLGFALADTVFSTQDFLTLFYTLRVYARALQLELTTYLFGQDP
T5 sequence (P41145 whole entry): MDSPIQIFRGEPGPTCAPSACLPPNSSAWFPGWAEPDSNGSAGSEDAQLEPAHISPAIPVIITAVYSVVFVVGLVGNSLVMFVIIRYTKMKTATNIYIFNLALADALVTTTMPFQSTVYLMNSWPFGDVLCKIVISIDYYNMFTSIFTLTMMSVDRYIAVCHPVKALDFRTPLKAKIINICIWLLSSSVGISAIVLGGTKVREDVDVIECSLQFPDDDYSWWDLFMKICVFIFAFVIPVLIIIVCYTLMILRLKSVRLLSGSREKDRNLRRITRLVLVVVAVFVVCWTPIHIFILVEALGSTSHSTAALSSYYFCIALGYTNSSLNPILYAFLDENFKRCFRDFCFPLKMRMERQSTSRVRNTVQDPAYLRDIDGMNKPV
Glutathione hydrolase 1 proenzyme, sequence (P19440 1-380 limits assumed): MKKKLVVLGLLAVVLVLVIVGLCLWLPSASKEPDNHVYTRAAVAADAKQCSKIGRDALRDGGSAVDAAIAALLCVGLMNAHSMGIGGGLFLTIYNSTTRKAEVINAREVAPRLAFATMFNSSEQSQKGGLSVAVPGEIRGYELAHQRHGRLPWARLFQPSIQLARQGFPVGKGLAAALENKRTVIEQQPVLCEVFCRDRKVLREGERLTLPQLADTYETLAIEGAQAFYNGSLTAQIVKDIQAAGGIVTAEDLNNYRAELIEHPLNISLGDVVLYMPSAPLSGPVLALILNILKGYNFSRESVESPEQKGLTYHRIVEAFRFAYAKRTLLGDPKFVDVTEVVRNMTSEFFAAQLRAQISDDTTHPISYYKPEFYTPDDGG
Glutathione hydrolase 1 proenzyme, sequence (P19440 381-569 limits assumed): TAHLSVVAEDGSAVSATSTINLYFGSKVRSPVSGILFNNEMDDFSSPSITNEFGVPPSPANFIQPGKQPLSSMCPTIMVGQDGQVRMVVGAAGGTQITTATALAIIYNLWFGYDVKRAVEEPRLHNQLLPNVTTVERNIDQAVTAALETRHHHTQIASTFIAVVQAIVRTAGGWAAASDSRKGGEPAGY

CC(C)=CCN1CC[C@@]2(C)c3c(ccc(O)c3Br)C[C@H]1[C@H]2C
Ki [1]: 2.49 nM | Ki [2]: 283 nM

C=CCCCN1CC[C@]2(C)c3cc(O)ccc3C[C@@H]1[C@@H]2C
Ki [3]: 180 nM

C[C@@H]1[C@@H]2Cc3ccc(O)cc3[C@]1(C)CCN2CCN1CCCCC1
Ki [4]: 9.6 nM | ED50 [5]: 0.88 mg/kg | Ki [6]: 114 nM | Ki (Mu-type opioid receptor [7]): 12000 nM

C[C@@H]1[C@@H]2Cc3ccc(O)cc3[C@]1(C)CCN2CCN(C)c1ccccc1
Ki [4]: 5.6 nM | Ki [6]: 124 nM | Ki (Mu-type opioid receptor [7]): 28.8 nM

COC(=O)[C@]1(c2ccccc2)C[C@@H]1CN1CC[C@@]2(C)c3cc(O)ccc3C[C@H]1[C@H]2C
Ki [8]: 66.7 nM | Ki [9]: > 1000 nM | Ki [10]: > 1000 nM | Ki (Mu-type opioid receptor [11]): > 25000 nM

C[C@@H]1[C@@H]2Cc3ccc(O)c(Br)c3[C@]1(C)CCN2Cc1ccccc1
Ki [1]: 1.75 nM | Ratio Ki [12]: 200 | Ki [2]: 346 nM

C[C@@H]1[C@@H]2Cc3ccccc3[C@]1(C)CCN2CCN1CCCC1
Ki [8]: 34 nM | Ki [13]: 42 nM | Ki [14]: 6400 nM

C=CCCCCN1CC[C@]2(C)c3cc(O)ccc3C[C@@H]1[C@@H]2C
Ki [3]: 80 nM

COC(=O)[C@]1(c2ccc(Cl)cc2)C[C@@H]1CN1CC[C@]2(C)c3cc(O)ccc3C[C@@H]1[C@@H]2C
Ki [8]: 1050 nM | Ki [9]: 0.41 nM | Ki [10]: > 25000 nM | Ki (Mu-type opioid receptor [11]): > 25000 nM

C/C=C/CN1CCN(c2ccc3c(c2)[C@H]2C[C@@H]3CCN2C(=O)OCc2ccccc2)CC1
Ki [15]: 16 nM

C[C@@H](CN1CC[C@@]2(C)c3cccc(O)c3C[C@@H]1C2(C)C)OCc1ccccc1 [CROBENETINE]
Ki [16]: 43 nM | IC50 [17]: 322 nM | ED50 (Mus musculus [18]): 6.1 mg/kg

COC(=O)C1(c2ccccc2)CC1CN1CC[C@@]2(C)c3cc(O)ccc3C[C@H]1[C@H]2C (mixture of isomers)
Ki [8]: 1380 nM | Ki [9]: > 1000 nM | Ki [10]: > 1000 nM | Ki (Mu-type opioid receptor [11]): > 1000 nM

COC(=O)[C@@]1(c2ccccc2)C[C@H]1CN1CC[C@@]2(C)c3cc(O)ccc3C[C@H]1[C@H]2C
Ki [8]: 75 nM | Ki [9]: > 1000 nM | Ki [10]: > 1000 nM | Ki (Mu-type opioid receptor [11]): > 1000 nM

CC(C)=CCN1CCN(c2ccc3c(c2)[C@H]2C[C@@H]3CCN2C(=O)OCc2ccccc2)CC1
Ki [15]: 23 nM

C=CCN1CC[C@]2(C)c3cc(O)ccc3C[C@@H]1[C@@H]2C
Ki [3]: 3200 nM

C[C@@H]1[C@@H]2Cc3ccc(O)cc3[C@]1(C)CCN2CCN1CCCCCC1
Ki [4]: 20.1 nM | Ki [6]: 151 nM | Ki (Mu-type opioid receptor [7]): 9130 nM

C[C@@H]1[C@@H]2Cc3ccc(O)cc3[C@]1(C)CCN2Cc1ccccc1
Ki [19]: 0.67 nM | Ratio Ki [20]: 2600 | Ki (Mu-type opioid receptor [21]): 1610 nM | Ratio Ki [22]: 2400 | Ki [23]: 1710 nM

CO[C@H](C)CN1CC[C@@]2(C)c3ccc(O)cc3C[C@@H]1C2(C)C
Ki [24]: 4.5 nM | half-life [25]: 4 h | LD50 [26]: 0.4 mg/kg

C[C@@H]1[C@@H]2Cc3ccccc3[C@]1(C)CCN2CCNc1ccccc1
Ki [8]: 21 nM | Ki [13]: 144 nM | Ki [14]: 6500 nM

C=CCCN1CC[C@]2(C)c3cc(O)ccc3C[C@@H]1[C@@H]2C
Ki [3]: 620 nM

CC(C)=CCN1CC[C@@]2(C)c3c(ccc(O)c3Cl)C[C@H]1[C@H]2C
Ki [1]: 2.62 nM | Ki [2]: 4960 nM

C[C@@H]1[C@@H]2Cc3ccc(N)cc3[C@]1(C)CCN2Cc1ccccc1
Ki [27]: 832 nM | Ratio Ki [28]: 570 | Ki [29]: 1.47 nM

C[C@@H]1[C@@H]2Cc3ccc(O)cc3[C@]1(C)CCN2CCNc1ccccc1
Ki [4]: 5.9 nM | Ki [6]: 111 nM | Ki (Mu-type opioid receptor [7]): 79.8 nM

C[C@@H]1[C@@H]2Cc3ccc(O)c(Cl)c3[C@]1(C)CCN2Cc1ccccc1
Ki [1]: 1.72 nM | Ratio Ki [12]: 440 | Ki [2]: 764 nM

C[C@@H]1[C@@H]2Cc3ccc(O)cc3[C@]1(C)CCN2Cc1ccccc1F
Ki [19]: 0.97 nM

CC(C)[C@@H]1[C@@H]2CCN(Cc3ccccc3)[C@@H]1Cc1ccccc12
Ki [4]: 31.7 nM | Ratio Ki [30]: 4 | Ki [31]: 133 nM

C[C@@H]1[C@@H]2CCN(Cc3ccccc3)[C@@H]1Cc1ccccc12
Ki [4]: 0.96 nM | Ratio Ki [30]: 136 | Ki [31]: 131 nM

C[C@@H]1[C@@H]2Cc3ccc(O)cc3[C@]1(C)CCN2CCN1CCCC1
Ki [4]: 7.4 nM | Ki [6]: 260 nM | Ki (Mu-type opioid receptor [7]): 3800 nM

C[C@@H]1[C@@H]2Cc3ccc(N(C)C)cc3[C@]1(C)CCN2Cc1ccccc1
Ki [27]: 258 nM | Ratio Ki [28]: 150 | Ki [29]: 1.75 nM

CC(C)=CCN1CC[C@@]2(C)c3cc(O)ccc3C[C@H]1[C@H]2C
Ki (Mu-type opioid receptor [7]): 2370 nM

C[C@@H]1[C@@H]2Cc3ccccc3[C@]1(C)CCN2CCN(C)c1ccccc1
Ki [8]: 91 nM | Ki [13]: 157 nM | Ki [14]: > 10000 nM

CC[C@@H]1[C@@H]2CCN(Cc3ccccc3)[C@@H]1Cc1ccccc12
Ki [4]: 3.36 nM | Ratio Ki [30]: 34 | Ki [31]: 115 nM

COC(=O)[C@]1(c2ccccc2)C[C@@H]1CN1CC[C@]2(C)c3cc(O)ccc3C[C@@H]1[C@@H]2C
Ki [9]: 240 nM | Ki [10]: > 25000 nM | Ki (Mu-type opioid receptor [11]): > 25000 nM

CO[C@@H](C)CN1CC[C@@]2(C)c3cccc(O)c3C[C@@H]1C2(C)C
Ki [16]: 789 nM | IC50 [17]: 39 nM | ED50 (Mus musculus [32]): 1 mg/kg

C[C@@H]1[C@@H]2Cc3ccc(O)cc3[C@]1(C)CCN2Cc1ccc(F)cc1
Ki [19]: 1.45 nM

C=CCN1CC[C@@]2(C)c3cc(O)ccc3C[C@H]1[C@H]2C
Ki [8]: 169 nM | Ki [9]: > 1000 nM | Ki (Mu-type opioid receptor [21]): > 10000 nM | Ki [10]: > 1000 nM | Ki (Mu-type opioid receptor [11]): > 1000 nM

C[C@@H]1[C@@H]2Cc3cc(I)c(O)cc3[C@]1(C)CCN2Cc1ccccc1
Ki [1]: 231 nM | Ki [2]: 597 nM

C[C@@H]1[C@@H]2Cc3ccc(O)cc3[C@]1(C)CCN2CCN1CCOCC1
Ki [4]: 13.4 nM | ED50 [5]: 0.82 mg/kg | Ki [6]: 300 nM | Ki (Mu-type opioid receptor [7]): 8170 nM

C[C@@H]1[C@@H]2Cc3ccccc3[C@]1(C)CCN2CCN1CCCCC1
Ki [8]: 20 nM | Ki [13]: 130 nM | Ki [14]: > 10000 nM

CC(C)=CCN1CC[C@@]2(C)c3cc(F)ccc3C[C@H]1[C@H]2C
Ki [27]: 154 nM | Ratio Ki [28]: 104 | Ki [29]: 1.48 nM
